Results: ChEMBL document CHEMBL2429821, “A Casein kinase 1/Checkpoint kinase 1 pyrazolo-pyridine protein kinase inhibitor as novel activator of the p53 pathway” (Bioorg Med Chem Lett, 2013)
Blank lines part the entries; values can stand above or below the compound they belong to. The source made the active and inactive calls. No cut-off for these calls is given here.

How the values were obtained:
[1] = test system: A-375; assay: Cell cycle arrest in human A375 cells assessed as accumulation at G0-G1 phase at 20 uM after 48 hrs by FACS flow cytometric analysis (reference value: 55.4%); assay type: functional
[2] = test system: A-375; assay: Cell cycle arrest in human A375 cells assessed as accumulation at G2-M phase at 1 uM after 48 hrs by FACS flow cytometric analysis (reference value: 17.3%); assay type: functional
[3] = test system: A-375; assay: Cell cycle arrest in human A375 cells assessed as accumulation at S phase at 40 uM after 48 hrs by FACS flow cytometric analysis (reference value: 25.1%); assay type: functional
[4] = test system: A-375; assay: Cell cycle arrest in human A375 cells assessed as accumulation at sub-G1 phase at 5 uM after 48 hrs by FACS flow cytometric analysis (reference value: 2.17%); assay type: functional
[5] = test system: A-375; assay: Cell cycle arrest in human A375 cells assessed as accumulation at sub-G1 phase at 20 uM after 48 hrs by FACS flow cytometric analysis (reference value: 2.17%); assay type: functional
[6] = test system: A-375; assay: Cell cycle arrest in human A375 cells assessed as accumulation at G0-G1 phase at 1 uM after 48 hrs by FACS flow cytometric analysis (reference value: 55.4%); assay type: functional
[7] = molecular target: T1, Casein kinase I/MDM2 (Homo sapiens) (UniProt Q00987+P48729); assay: Inhibition of CK1-MDM2 complex in human A375 cells assessed as increase in p21 protein level at 0.2 to 5 uM after 48 hrs by immunoblotting analysis; assay type: cell-based; conditions: A-375
T1 sequence (P48729 whole entry, looked up): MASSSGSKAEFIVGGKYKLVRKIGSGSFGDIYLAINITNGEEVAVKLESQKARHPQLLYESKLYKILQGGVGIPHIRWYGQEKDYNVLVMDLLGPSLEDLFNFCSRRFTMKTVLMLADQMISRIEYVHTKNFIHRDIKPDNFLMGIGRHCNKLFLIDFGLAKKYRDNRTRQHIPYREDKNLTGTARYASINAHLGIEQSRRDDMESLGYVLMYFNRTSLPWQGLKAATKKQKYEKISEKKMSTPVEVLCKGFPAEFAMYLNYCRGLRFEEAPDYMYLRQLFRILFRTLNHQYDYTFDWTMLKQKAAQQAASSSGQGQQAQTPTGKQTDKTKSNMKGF
T1 sequence (Q00987 whole entry, looked up): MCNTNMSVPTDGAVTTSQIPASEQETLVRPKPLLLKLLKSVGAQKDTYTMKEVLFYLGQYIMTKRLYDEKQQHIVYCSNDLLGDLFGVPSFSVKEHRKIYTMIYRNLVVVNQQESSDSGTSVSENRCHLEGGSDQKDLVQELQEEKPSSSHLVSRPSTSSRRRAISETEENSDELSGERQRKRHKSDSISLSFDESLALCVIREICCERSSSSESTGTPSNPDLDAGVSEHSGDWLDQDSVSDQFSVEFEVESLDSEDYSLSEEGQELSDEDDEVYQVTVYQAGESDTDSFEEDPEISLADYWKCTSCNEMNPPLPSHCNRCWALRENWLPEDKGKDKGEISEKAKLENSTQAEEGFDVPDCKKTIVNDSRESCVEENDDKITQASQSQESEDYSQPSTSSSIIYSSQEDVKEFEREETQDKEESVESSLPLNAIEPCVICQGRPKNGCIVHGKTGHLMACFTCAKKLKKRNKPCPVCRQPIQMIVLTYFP

[8] = test system: A-375; assay: Cell cycle arrest in human A375 cells assessed as accumulation at sub-G1 phase at 10 uM after 48 hrs by FACS flow cytometric analysis (reference value: 2.17%); assay type: functional
[9] = test system: A-375; assay: Cell cycle arrest in human A375 cells assessed as accumulation at S phase at 5 uM after 48 hrs by FACS flow cytometric analysis (reference value: 25.1%); assay type: functional
[10] = molecular target: Mitogen-activated protein kinase 15 (Homo sapiens, UniProt Q8TD08); assay: Inhibition of human ERK8 in presence of 5 uM ATP
Chain of Mitogen-activated protein kinase 15 (Q8TD08 whole entry): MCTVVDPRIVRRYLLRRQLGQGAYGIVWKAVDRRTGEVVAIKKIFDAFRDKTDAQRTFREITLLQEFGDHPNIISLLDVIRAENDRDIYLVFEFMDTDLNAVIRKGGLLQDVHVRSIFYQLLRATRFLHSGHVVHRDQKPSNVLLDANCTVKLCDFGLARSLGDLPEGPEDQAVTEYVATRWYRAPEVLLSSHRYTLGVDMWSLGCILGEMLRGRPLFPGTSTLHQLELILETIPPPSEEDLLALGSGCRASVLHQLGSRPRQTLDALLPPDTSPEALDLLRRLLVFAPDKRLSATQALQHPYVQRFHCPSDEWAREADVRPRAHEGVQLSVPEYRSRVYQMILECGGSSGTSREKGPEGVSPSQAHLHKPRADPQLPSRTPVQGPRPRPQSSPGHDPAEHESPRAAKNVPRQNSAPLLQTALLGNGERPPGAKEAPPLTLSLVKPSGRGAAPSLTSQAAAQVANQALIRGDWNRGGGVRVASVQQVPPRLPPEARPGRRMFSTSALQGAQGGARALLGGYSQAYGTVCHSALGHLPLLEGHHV

[11] = test system: HCT-116; assay: Cytotoxicity against p53-deficient human HCT116 cells assessed as cell viability at 1 to 32 uM after 24 hrs by MTT assay; assay type: functional, cell-based
[12] = molecular target: T1, Casein kinase I/MDM2 (Homo sapiens); assay: Inhibition of CK1-MDM2 complex in human A375 cells assessed as decrease in […] protein level at 0.2 to 5 uM after 48 hrs by immunoblotting analysis; assay type: cell-based; conditions: A-375
[13] = test system: A-375; assay: Cell cycle arrest in human A375 cells assessed as accumulation at G0-G1 phase at 5 uM after 48 hrs by FACS flow cytometric analysis (reference value: 55.4%); assay type: functional
[14] = test system: HCT-116; assay: Cytotoxicity against human HCT116 cells expressing p53 assessed as cell viability at 1 to 32 uM after 24 hrs by MTT assay; assay type: functional, cell-based
[15] = test system: A-375; assay: Cell cycle arrest in human A375 cells assessed as accumulation at G2-M phase at 5 uM after 48 hrs by FACS flow cytometric analysis (reference value: 17.3%); assay type: functional
[16] = test system: A-375; assay: Cell cycle arrest in human A375 cells assessed as accumulation at S phase at 1 uM after 48 hrs by FACS flow cytometric analysis (reference value: 25.1%); assay type: functional
[17] = test system: A-375; assay: Cytotoxicity against human A375 cells assessed as cell viability after 24 hrs by MTT assay; assay type: functional, cell-based; conditions: A-375, 24 h
[18] = test system: A-375; assay: Cell cycle arrest in human A375 cells assessed as accumulation at sub-G1 phase at 1 uM after 48 hrs by FACS flow cytometric analysis (reference value: 2.17%); assay type: functional
[19] = test system: A-375; assay: Cytotoxicity against human A375 cells assessed as reduction in cell number at 5 uM after 24 hrs by light microscopic analysis relative to control; assay type: functional, cell-based
[20] = molecular target: T1, Casein kinase I/MDM2 (Homo sapiens); assay: Inhibition of CK1-MDM2 complex in human A375 cells assessed as increase in p53 protein level at 0.2 to 5 uM after 48 hrs by immunoblotting analysis; assay type: cell-based; conditions: A-375
[21] = test system: A-375; assay: Cell cycle arrest in human A375 cells assessed as accumulation at G2-M phase at 40 uM after 48 hrs by FACS flow cytometric analysis (reference value: 17.3%); assay type: functional
[22] = molecular target: T1, Casein kinase I/MDM2 (Homo sapiens); assay: Inhibition of CK1-MDM2 complex in human A375 cells assessed as increase in MDM2 protein level at 0.2 to 5 uM after 48 hrs by immunoblotting analysis; assay type: cell-based; conditions: A-375
[23] = test system: A-375; assay: Cell cycle arrest in human A375 cells assessed as accumulation at sub-G1 phase at 40 uM after 48 hrs by FACS flow cytometric analysis (reference value: 2.17%); assay type: functional
[24] = test system: A-375; assay: Cell cycle arrest in human A375 cells assessed as accumulation at S phase at 20 uM after 48 hrs by FACS flow cytometric analysis (reference value: 25.1%); assay type: functional
[25] = test system: A-375; assay: Cell cycle arrest in human A375 cells assessed as accumulation at G0-G1 phase at 10 uM after 48 hrs by FACS flow cytometric analysis (reference value: 55.4%); assay type: functional
[26] = molecular target: T1, Casein kinase I/MDM2 (Homo sapiens); assay: Inhibition of CK1-MDM2 complex in human A375 cells assessed as decrease in E2F1 protein level after 48 hrs by immunoblotting analysis; assay type: cell-based; conditions: A-375
[27] = molecular target: T1, Casein kinase I/MDM2 (Homo sapiens); assay: Inhibition of CK1-MDM2 complex in human A375 cells assessed as increase in p53 protein level at 5 to 40 uM compound transfected into cells using attractene carrier after 48 hrs by immunoblotting analysis; assay type: cell-based; conditions: A-375
[28] = test system: A-375; assay: Cytotoxicity against human A375 cells assessed as reduction in cell number at 40 uM after 24 hrs by light microscopic analysis relative to control; assay type: functional, cell-based
[29] = molecular target: T1, Casein kinase I/MDM2 (Homo sapiens); assay: Inhibition of CK1-MDM2 complex in human A375 cells assessed as increase in p21 protein level at 5 to 40 uM compound transfected into cells using attractene carrier after 48 hrs by immunoblotting analysis; assay type: cell-based; conditions: A-375
[30] = molecular target: T1, Casein kinase I/MDM2 (Homo sapiens); assay: Inhibition of CK1-MDM2 complex in human A375 cells assessed as effect on p21 protein level at 0.2 to 80 uM after 48 hrs by immunoblotting analysis; assay type: cell-based; conditions: A-375
[31] = molecular target: T1, Casein kinase I/MDM2 (Homo sapiens); assay: Inhibition of CK1-MDM2 complex in human A375 cells assessed as effect on MDM2 protein level at 0.2 to 80 uM after 48 hrs by immunoblotting analysis; assay type: cell-based; conditions: A-375
[32] = molecular target: T1, Casein kinase I/MDM2 (Homo sapiens); assay: Inhibition of CK1-MDM2 complex in human A375 cells assessed as increase in p53 protein level at 0.2 to 40 uM after 24 hrs by immunoblotting analysis; assay type: cell-based; conditions: A-375
[33] = molecular target: T1, Casein kinase I/MDM2 (Homo sapiens); assay: Inhibition of CK1-MDM2 complex in human A375 cells assessed as decrease in MDM2 protein level at 0.2 to 40 uM after 24 hrs by immunoblotting analysis; assay type: cell-based; conditions: A-375
[34] = molecular target: T2, Mitogen-activated protein kinase 14 (Homo sapiens, UniProt Q16539); assay: Inhibition of human p38alpha MAPK assessed as residual activity at 1 uM relative to control
T2 sequence (Q16539 whole entry): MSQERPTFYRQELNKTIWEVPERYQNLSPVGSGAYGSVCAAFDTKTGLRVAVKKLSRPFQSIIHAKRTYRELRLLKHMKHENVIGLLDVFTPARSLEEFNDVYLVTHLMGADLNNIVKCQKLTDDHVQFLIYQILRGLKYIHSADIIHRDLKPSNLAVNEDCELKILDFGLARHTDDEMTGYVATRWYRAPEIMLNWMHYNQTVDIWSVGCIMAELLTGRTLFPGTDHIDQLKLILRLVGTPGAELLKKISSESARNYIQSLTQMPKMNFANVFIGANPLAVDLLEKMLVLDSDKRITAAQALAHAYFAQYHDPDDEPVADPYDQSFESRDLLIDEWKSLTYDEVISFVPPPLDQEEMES

[35] = molecular target: T1, Casein kinase I/MDM2 (Homo sapiens); assay: Inhibition of CK1-MDM2 complex in human A375 cells assessed as effect on p21 protein level at 0.2 to 40 uM after 24 hrs by immunoblotting analysis; assay type: cell-based; conditions: A-375
[36] = molecular target: T2, Mitogen-activated protein kinase 14; assay: Inhibition of human p38alpha MAPK assessed as residual activity at 10 uM relative to control
[37] = molecular target: T1, Casein kinase I/MDM2 (Homo sapiens); assay: Inhibition of CK1-MDM2 complex in human A375 cells assessed as increase in […] protein level at 0.2 to 40 uM after 24 hrs by immunoblotting analysis; assay type: cell-based; conditions: A-375

- inhibition [7]: Active
- inhibition [12]: Active
- inhibition [20]: Active
- inhibition [22]: Active
SMILES: CC(=O)Nc1cccc(-c2cnc3[nH]nc(C)c3c2)c1
- Activity [1]: 25.1%
- Activity [2]: 17.8%
- Activity [3]: 14%
- Activity [4]: 19.1%
- Activity [5]: 50.5%
- Activity [6]: 57.7%
- Activity [8]: 34.3%
- Activity [9]: 13.7%
- IC50 [10]: 0.4 µM
- Activity [11]: Active
- Activity [13]: 50.8%
- Activity [14]: Active
- Activity [15]: 15.9%
- Activity [16]: 21.6%
- IC50 [17]: 8 µM
- Activity [18]: 2.37%
- Activity [19]: Active
- Activity [21]: 8.54%
- Activity [23]: 56.7%
- Activity [24]: 14.2%
- Activity [25]: 39.6%

- inhibition [26]: Dose-dependent effect
- inhibition [27]: inactive
- inhibition [29]: inactive
- inhibition [30]: inactive
- inhibition [31]: inactive
SMILES: CC(=O)Nc1nccc(-c2c(-c3ccccc3)noc2C)n1
- Activity [28]: inactive

- inhibition [32]: Active
- inhibition [33]: Active
- Activity [34]: 84%
- inhibition [35]: inactive
- Activity [36]: 91%
- inhibition [37]: Active
SMILES: CCCC(=O)Nc1n[nH]c2ncc(-c3cccnc3)cc12
